Laboratory results: ChEMBL document CHEMBL5584286, “Structure Determination of 1,3-Dioxolane-Containing Lipids from the Marine Sponge Leucetta sp. Using Chiral 1H NMR Analysis of Model Systems” (2024)
Active and inactive are the calls of the source. The calls are words filed in the database; no cut-off is given here.

Experiments:
Micrococcus luteus = assay: Antibacterial activity against Micrococcus luteus KCTC 1915; type: functional
Staphylococcus aureus = assay: Antibacterial activity against Staphylococcus aureus KCTC 1927; type: functional
Bacillus subtilis = assay: Antibacterial activity against Bacillus subtilis KCTC 1021; type: functional
Salmonella typhimurium = assay: Antibacterial activity against Salmonella typhimurium KCTC 2515; type: functional, Salmonella enterica subsp. enterica serovar Typhimurium; settings: Salmonella enterica
Klebsiella pneumoniae = assay: Antibacterial activity against Klebsiella pneumoniae KCTC 2690; type: functional
Escherichia coli = assay: Antibacterial activity against Escherichia coli KCTC 2441; type: functional
RAW264.7 = assay: Antiinflammatory activity in mouse RAW264.7 cells; type: functional, cell-based

| Compound | MIC (Micrococcus luteus) [µg/mL] | MIC (Staphylococcus aureus) [µg/mL] | MIC (Bacillus subtilis) [µg/mL] | MIC (Salmonella typhimurium) [µg/mL] | MIC (Klebsiella pneumoniae) [µg/mL] | MIC (Escherichia coli) [µg/mL] | Activity (RAW264.7) |
| --- | --- | --- | --- | --- | --- | --- | --- |
| CCCCCCCCC/C=C\C/C=C\CCC[C@H](C)[C@H]1OC[C@H](CO)O1 | > 128 | > 128 | > 128 | > 128 | > 128 | > 128 | inactive |
| CCCCCCCC/C=C\C/C=C\CCC[C@H](C)[C@H]1OC[C@H](CO)O1 | > 128 | > 128 | > 128 | > 128 | > 128 | > 128 | inactive |
| CCCCCCCCCC/C=C\C/C=C\CCC[C@H](C)[C@H]1OC[C@H](CO)O1 | > 128 | > 128 | > 128 | > 128 | > 128 | > 128 | inactive |
| CCCCCCCCCCC/C=C\C=C\C(O)CC[C@H](C)[C@H]1OC[C@H](CO)O1 (stereo not given in full) | > 128 | > 128 | > 128 | > 128 | > 128 | > 128 | inactive |
| CCCCCCCCCCC/C=C\CCC[C@H](C)[C@H]1OC[C@H](CO)O1 | > 128 | > 128 | > 128 | > 128 | > 128 | > 128 | inactive |
